# Measured values as given in US11524968B2, “Heterocyclic compound as a protein kinase inhibitor” (HK inno.N Corporation, priority 2017, dated 2022).
# pIC50: −log10 of the molar value.
# Target: JAK1 (Homo sapiens (Human), UniProt P23458)
# Assay: Analysis of JAK1 activity inhibition ability (ADP-Glo Kinase Assay)
# Format: biochemical
# Conditions: JAK1 enzyme, ADP-Glo luminescence, ATP 250 uM, IRS-itide substrate, 30° C. 40 minutes; read-out: IC50
# Procedure, shortened: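 JAK1 enzyme, IRS-itide substrate (40 ng/mL) and 250 uM ATP, both as prepared in kinase buffer (Tris-HCl pH 7.5, MgCl2, BSA, DTT), reacted with compound 40 min at 30 °C. ADP formed was detected by ADP-Glo luminescence; IC50 is the concentration giving 50% inhibition versus control.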
# JAK1, sequence (P23458 whole entry): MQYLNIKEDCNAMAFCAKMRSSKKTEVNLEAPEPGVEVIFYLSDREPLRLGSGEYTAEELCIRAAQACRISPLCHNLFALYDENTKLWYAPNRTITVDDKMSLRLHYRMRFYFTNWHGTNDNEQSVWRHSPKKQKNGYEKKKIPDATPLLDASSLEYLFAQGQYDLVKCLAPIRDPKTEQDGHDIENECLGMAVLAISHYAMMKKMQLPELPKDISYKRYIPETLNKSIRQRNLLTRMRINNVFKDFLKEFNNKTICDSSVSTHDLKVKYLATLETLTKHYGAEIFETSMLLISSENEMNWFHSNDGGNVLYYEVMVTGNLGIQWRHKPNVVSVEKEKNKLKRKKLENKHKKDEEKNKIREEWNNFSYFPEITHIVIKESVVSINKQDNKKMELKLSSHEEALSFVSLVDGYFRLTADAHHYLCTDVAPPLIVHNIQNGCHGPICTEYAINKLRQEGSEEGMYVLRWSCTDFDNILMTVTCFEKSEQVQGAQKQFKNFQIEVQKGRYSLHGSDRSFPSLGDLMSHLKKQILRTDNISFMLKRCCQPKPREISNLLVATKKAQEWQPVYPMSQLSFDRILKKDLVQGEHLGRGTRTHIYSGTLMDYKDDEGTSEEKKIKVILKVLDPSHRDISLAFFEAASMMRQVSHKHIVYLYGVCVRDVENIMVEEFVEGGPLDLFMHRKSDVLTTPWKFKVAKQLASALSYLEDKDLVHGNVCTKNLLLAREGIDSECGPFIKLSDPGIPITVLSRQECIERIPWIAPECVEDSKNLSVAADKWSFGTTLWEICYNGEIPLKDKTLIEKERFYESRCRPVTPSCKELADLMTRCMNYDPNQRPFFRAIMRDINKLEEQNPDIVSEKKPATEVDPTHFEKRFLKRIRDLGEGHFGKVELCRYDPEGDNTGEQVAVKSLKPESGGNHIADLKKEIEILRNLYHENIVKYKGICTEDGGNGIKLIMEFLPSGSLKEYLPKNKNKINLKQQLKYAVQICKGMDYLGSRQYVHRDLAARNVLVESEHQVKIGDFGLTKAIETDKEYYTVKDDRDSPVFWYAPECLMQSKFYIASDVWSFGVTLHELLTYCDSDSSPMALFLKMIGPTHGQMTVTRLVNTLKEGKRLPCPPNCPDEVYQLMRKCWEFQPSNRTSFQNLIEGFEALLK
row,SMILES,pIC50
1,"O=C(Nc1cc(-c2ccc(CN3CCS(=O)(=O)CC3)cc2)c2cc[nH]c2n1)NC1CC1 [Example 717, 1-cyclopropyl-3-(4-(4-((1,1-dioxidothiomorpholino)methyl)phenyl)-1H-pyrrolo[2,3-b]pyridin-6-yl)urea]",6.70 to 7.70
2,"CNS(=O)(=O)Cc1ccc(-c2cc(NC(=O)C3CC3)nc3[nH]ccc23)cc1 [Example 533, N-(4-(4-((N-methylsulfamoyl)methyl)phenyl)-1H-pyrrolo[2,3-b]pyridin-6-yl)cyclopropanecarboxamide]",6.70 to 7.70
3,"N#CCCC(=O)N1C=C(c2cc(NC(=O)C3CC3)nc3[nH]ccc23)CCC1 [Example 418, N-(4-(1-(3-cyanopropanoyl)-1,4,5,6-tetrahydropyridin-3-yl)-1H-pyrrolo[2,3-b]pyridin-6-yl)cyclopropanecarboxamide]",< 6.70
4,"CC1CC(c2cc(NC(=O)C3CC3)nc3[nH]ccc23)=CCN1C(=O)CC#N (centres unmarked) [Example 363, N-(4-(1-(2-cyanoacetyl)-2-methyl-1,2,3,6-tetrahydropyridin-4-yl)-1H-pyrrolo[2,3-b]pyridin-6-yl)cyclopropanecarboxamide]",> 7.70
5,"CCCS(=O)(=O)NCc1ccc(-c2cc(NC(=O)C3CC3)nc3[nH]ccc23)cc1 [Example 583, N-(4-(4-(propylsulfonamidomethyl)phenyl)-1H-pyrrolo[2,3-b]pyridin-6-yl)cyclopropanecarboxamide]",6.70 to 7.70
6,"CCS(=O)(=O)Nc1ccc(-c2cc(NC(=O)C3CC3)nc3[nH]ccc23)cn1 [Example 148, N-(4-(6-(ethylsulfonamido)pyridin-3-yl)-1H-pyrrolo[2,3-b]pyridin-6-yl)cyclopropanecarboxamide]",6.70 to 7.70
7,"O=C(Nc1cc(-c2ccc(NS(=O)(=O)N3CCOCC3)c(F)c2)c2cc[nH]c2n1)C1CC1 [Example 226, N-(4-(3-fluoro-4-(morpholine-4-sulfonamido)phenyl)-1H-pyrrolo[2,3-b]pyridin-6-yl)cyclopropanecarboxamide]",> 7.70
8,"CCS(=O)(=O)Nc1ccc(-c2cc(NC(=O)C3CC3)nc3[nH]ccc23)c(C)c1F [Example 101, N-(4-(4-(ethylsulfonamido)-3-fluoro-2-methylphenyl)-1H-pyrrolo[2,3-b]pyridin-6-yl)cyclopropanecarboxamide]",6.70 to 7.70
9,"O=C(Nc1ccc(-c2nc(NC(=O)C3CC3)nc3[nH]ccc23)cc1)Nc1ccc(F)c(F)c1 [Example 440, N-(4-(4-(3-(3,4-difluorophenyl)ureido)phenyl)-7H-pyrrolo[2,3-d]pyrimidin-2-yl)cyclopropanecarboxamide]",6.70 to 7.70
10,"CC1CN(C(=O)c2ccnc(N)c2)CC=C1c1cc(NC(=O)C2CC2)nc2[nH]ccc12 (centres unmarked) [Example 381, N-(4-(1-(2-aminoisonicotinoyl)-3-methyl-1,2,3,6-tetrahydropyridin-4-yl)-1H-pyrrolo[2,3-b]pyridin-6-yl)cyclopropanecarboxamide]",< 6.70
11,"Cc1cc(CC(=O)N2CCS(=O)(=O)CC2)ccc1-c1cc(NC(=O)C2CC2)nc2[nH]ccc12 [Example 545, N-(4-(4-(2-(1,1-dioxidothiomorpholino)-2-oxoethyl)-2-methylphenyl)-1H-pyrrolo[2,3-b]pyridin-6-yl)cyclopropanecarboxamide]",6.70 to 7.70
12,"N#CCC1(N2CC=C(c3cc(NC(=O)C4CC4)nc4[nH]ccc34)CC2)CN(S(=O)(=O)c2ccc(F)cc2)C1 [Example 623, N-(4-(1-(3-(cyanomethyl)-1-((4-fluorophenyl)sulfonyl)azetidin-3-yl)-1,2,3,6-tetrahydropyridin-4-yl)-1H-pyrrolo[2,3-b]pyridin-6-yl)cyclopropanecarboxamide]",6.70 to 7.70
13,"Cc1c(NC(=O)C2CC2)nc2[nH]ccc2c1C1=CCN(C(=O)CC#N)CC1 [Example 289, N-(4-(1-(2-cyanoacetyl)-1,2,3,6-tetrahydropyridin-4-yl)-5-methyl-1H-pyrrolo[2,3-b]pyridin-6-yl)cyclopropanecarboxamide]",< 6.70
14,"O=C(Nc1cc(C2CCN(C(=O)NCC(F)(F)F)CC2)c2cc[nH]c2n1)C1CC1 [Example 654, 4-(6-(cyclopropanecarboxamido)-1H-pyrrolo[2,3-b]pyridin-4-yl)-N-(2,2,2-trifluoroethyl)piperidine-1-carboxamide]",< 6.70
15,"CN(C)S(=O)(=O)c1ccc(S(=O)(=O)Nc2ccc(-c3cc(NC(=O)C4CC4)nc4[nH]ccc34)cc2)cc1 [Example 37, N-(4-(4-((4-(N,N-dimethylsulfamoyl)phenyl)sulfonamido)phenyl)-1H-pyrrolo[2,3-b]pyridin-6-yl)cyclopropanecarboxamide]",6.70 to 7.70
16,"CC1CN(C(=O)c2ccnc3[nH]ccc23)CC=C1c1cc(NC(=O)C2CC2)nc2[nH]ccc12 (centres unmarked) [Example 328, N-(4-(3-methyl-1-(1H-pyrrolo[2,3-b]pyridine-4-carbonyl)-1,2,3,6-tetrahydropyridin-4-yl)-1H-pyrrolo[2,3-b]pyridin-6-yl)cyclopropanecarboxamide]",6.70 to 7.70

row,SMILES,pIC50
1,"O=C(Nc1cc(-c2ccc(NC3CN(C(=O)NCC(F)(F)F)C3)cc2)c2cc[nH]c2n1)C1CC1 [Example 514, 3-((4-(6-(cyclopropanecarboxamido)-1H-pyrrolo[2,3-b]pyridin-4-yl)phenyl)amino)-N-(2,2,2-trifluoroethyl)azetidine-1-carboxamide]",< 6.70
2,"C[C@@H]1CN(C(=O)c2cccc(Br)c2)CC=C1c1cc(NC(=O)C2CC2)nc2[nH]ccc12 [Example 397, (S)—N-(4-(1-(3-bromobenzoyl)-3-methyl-1,2,3,6-tetrahydropyridin-4-yl)-1H-pyrrolo[2,3-b]pyridin-6-yl)cyclopropanecarboxamide]",> 7.70
3,"CCS(=O)(=O)N1C2CCC1CN(c1nc(NC(=O)C3CC3)nc3[nH]ccc13)C2 [Example 669, N-(4-(8-(ethylsulfonyl)-3,8-diazabicyclo[3.2.1]octan-3-yl)-7H-pyrrolo[2,3-d]pyrimidin-2-yl)cyclopropanecarboxamide]",6.70 to 7.70
4,"CC1CN(C(=O)c2cccc(Br)c2)CC=C1c1cc(NC(=O)C2CC2)nc2[nH]ccc12 (centres unmarked) [Example 334, N-(4-(1-(3-bromobenzoyl)-3-methyl-1,2,3,6-tetrahydropyridin-4-yl)-1H-pyrrolo[2,3-b]pyridin-6-yl)cyclopropanecarboxamide]",6.70 to 7.70
5,"CC1CN(C(=O)c2ccnc(F)c2)CC=C1c1cc(NC(=O)C2CC2)nc2[nH]ccc12 (centres unmarked) [Example 309, N-(4-(1-(2-fluoroisonicotinoyl)-3-methyl-1,2,3,6-tetrahydropyridin-4-yl)-1H-pyrrolo[2,3-b]pyridin-6-yl)cyclopropanecarboxamide]",> 7.70
6,"Cc1cc(C(=O)N2CC=C(c3cc(NC(=O)C4CC4)nc4[nH]ccc34)C(C)C2)ccn1 (centres unmarked) [Example 379, N-(4-(3-methyl-1-(2-methylisonicotinoyl)-1,2,3,6-tetrahydropyridin-4-yl)-1H-pyrrolo[2,3-b]pyridin-6-yl)cyclopropanecarboxamide]",6.70 to 7.70
7,"C[C@@H]1CN(C(=O)c2ccc(Cl)nc2)CC=C1c1cc(NC(=O)C2CC2)nc2[nH]ccc12 [Example 400, (S)—N-(4-(1-(6-chloronicotinoyl)-3-methyl-1,2,3,6-tetrahydropyridin-4-yl)-1H-pyrrolo[2,3-b]pyridin-6-yl)cyclopropanecarboxamide]",> 7.70
8,"C[C@@H]1CN(C(=O)C2(C#N)CCOCC2)CC=C1c1cc(NC(=O)C2CC2)nc2[nH]ccc12 [Example 407, (S)—N-(4-(1-(4-cyanotetrahydro-2H-pyran-4-carbonyl)-3-methyl-1,2,3,6-tetrahydropyridin-4-yl)-1H-pyrrolo[2,3-b]pyridin-6-yl)cyclopropanecarboxamide]",6.70 to 7.70
9,"N#CCCCS(=O)(=O)Oc1ccc(-c2cc(NC(=O)C3CC3)nc3[nH]ccc23)cc1 [Example 639, 4-(6-(cyclopropanecarboxamido)-1H-pyrrolo[2,3-b]pyridin-4-yl)phenyl 3-cyanopropane-1-sulfonate]",6.70 to 7.70
10,"N#CCCCS(=O)(=O)NC1CC=C(c2cc(NC(=O)C3CC3)nc3[nH]ccc23)CC1 (centres unmarked) [Example 158, N-(4-(4-((3-cyanopropyl)sulfonamido)cyclohex-1-en-1-yl)-1H-pyrrolo[2,3-b]pyridin-6-yl)cyclopropanecarboxamide]",> 7.70
11,"O=C(Nc1cc(-c2ccc(NS(=O)(=O)CF)cc2)c2cc[nH]c2n1)C1CC1 [Example 49, N-(4-(4-((fluoromethyl)sulfonamido)phenyl)-1H-pyrrolo[2,3-b]pyridin-6-yl)cyclopropanecarboxamide]",6.70 to 7.70
12,"O=C(Nc1cc(C2=CCN(C(=O)NC(C3CC3)C(F)(F)F)CC2)c2cc[nH]c2n1)C1CC1 (centres unmarked) [Example 450, 4-(6-(cyclopropanecarboxamido)-1H-pyrrolo[2,3-b]pyridin-4-yl)-N-(1-cyclopropyl-2,2,2-trifluoroethyl)-3,6-dihydropyridine-1 (2H)-carboxamide]",< 6.70
13,"CC(C)(C)OC(=O)N1CCC(c2cc(NC(=O)C3CC3)nc3[nH]ccc23)C(O)C1 (centres unmarked) [Example 655, tert-butyl 4-(6-(cyclopropanecarboxamido)-1H-pyrrolo[2,3-b]pyridin-4-yl)-3-hydroxypiperidine-1-carboxylate]",< 6.70
14,"CCCn1ccc2c(-c3ccc(NS(=O)(=O)CC)c(F)c3)cc(NC(=O)C3CC3)nc21 [Example 61, N-(4-(4-(ethylsulfonamido)-3-fluorophenyl)-1-propyl-1H-pyrrolo[2,3-b]pyridin-6-yl)cyclopropanecarboxamide]",< 6.70
15,"CCCCS(=O)(=O)Nc1ccc(-c2cc(NC(=O)C3CC3)nc3[nH]ccc23)c(CC)c1 [Example 116, N-(4-(4-(butylsulfonamido)-2-ethylphenyl)-1H-pyrrolo[2,3-b]pyridin-6-yl)cyclopropanecarboxamide]",6.70 to 7.70
16,"O=C(Nc1cc(C2=CCN(C(=O)C(F)(F)F)CC2)c2cc[nH]c2n1)C1CC1 [Example 272, N-(4-(1-(2,2,2-trifluoroacetyl)-1,2,3,6-tetrahydropyridin-4-yl)-1H-pyrrolo[2,3-b]pyridin-6-yl)cyclopropanecarboxamide]",6.70 to 7.70
